The target of data set [1] is T1, Brd4 bromodomain 1 (BRD4(1)) (Homo sapiens, UniProt O60885).
T1 construct: made in house; host or cells: E. coli BL21(DE3)
The data set can be described thus: Inhibition of tetra-acetylated histone H4 binding to BET bromodomains (TR-FRET). Further details: key: Active: Compounds with an IC50 value less than 30 μM were deemed to be active.; Not Active: Compounds with an IC50 value less than 30 μM were deemed to be active. The settings on record: first bromodomain of Brd4, tetra-acetylated histone H4 peptide. In a few lines: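 N-terminally His-tagged bromodomain (200 nM) from E. coli was mixed with biotinylated tetra-acetylated histone H4 peptide (25-50 nM), Eu-streptavidin and XL665 anti-His, plus compound, in HEPES pH 7.4 buffer with 0.2% DMSO. After 2 h at room temperature, the 665/620 nm TR-FRET decrease gave IC50 from dose-response curves.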
For orientation: In TR-FRET formats the signal depends on donor and acceptor labels being close together.

Another data set concerns c-myc in MV4-11 cells. The data set can be described thus: Inhibition of c-myc expression in cancer cell lines (mRNA, real-time PCR). More on the design: key: Active: Compounds with an IC50 value less than 30 μM were deemed to be active.; Not Active: Compounds with an IC50 value less than 30 μM were deemed to be active. The settings on record: 3 h. It counts as cell-based, Human. The procedure, abridged: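 Duplex RT-qPCR of c-myc against cyclophilin cDNA gave IC50 from a dose–response curve. Input was isolated mRNA from 2.5×10^4 MV4-11 cells after 3 h exposure at 37 °C to compound or 0.1% DMSO vehicle.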
(In qPCR the cycle at which signal appears reflects the starting amount.)

Another data set deals with human AML MV-4-11 cells. The data set is described as follows: Inhibition of cell proliferation in cancer cell lines (CellTiter Aqueous One). In kind it is cell-based. Further details: key: Active: Compounds with an IC50 value less than 30 μM were deemed to be active.; Not Active: Compounds with an IC50 value less than 30 μM were deemed to be active. The settings on record: 72 h. In a few lines:
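IC50 values come from blank-corrected proliferation relative to DMSO controls, read as 490 nm absorbance 3–4 h after CellTiter Aqueous One addition. Before that, cells seeded at 5×10^4/well were exposed for 72 h (37° C, 5% CO2) to triplicate two-fold compound dilutions spanning 30–0.2 μM.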

In a further data set the test system is hIL-6 mRNA. The data set is described as follows: Inhibition of hIL-6 mRNA transcription in LPS-stimulated U937 macrophages. In kind it is cell-based, human. Further details: key: Active: Compounds with an IC50 value less than 30 μM were deemed to be active.; Not Active: Compounds with an IC50 value less than 30 μM were deemed to be active. The note with it: U937 cells differentiated with PMA, LPS stimulation, 3 h. As to the method:
In this example, hIL-6 mRNA in tissue culture cells was quantitated to measure the transcriptional inhibition of hIL-6 when treated with a compound of the present disclosure.
A human leukemic monocyte lymphoma cell line (U937) was plated (3.2×10^4 cells per well) in a 96-well plate in 100 μL RPMI-1640 containing 10% FBS and penicillin/streptomycin, and differentiated into macrophages for 3 days in 60 ng/mL PMA ([…]) at 37° C. in 5% CO2 prior to the addition of the compound of interest. The cells were pretreated for 1 h with the test compound prior to stimulation with 1 ug/mL lipopolysaccharide from Escherichia coli. The cells were incubated at 37° C. for 3 h before the cells were harvested. At time of harvest, the spent media was removed from the cells and the cells were rinsed in 200 μL PBS. Cell lysis solution (70 μL) was added the cells in each well and incubated for 5-10 min at room temperature, to allow for complete cell lysis and detachment. mRNA was then prepared using the “mRNA Catcher PLUS plate” (Invitrogen), according to the protocol supplied. After the last wash, as much wash buffer as possible was aspirated without allowing the wells to dry. Elution buffer (E3, 70 μL) was then added to each well. mRNA was then eluted by incubating the mRNA Catcher PLUS plate with Elution Buffer for 5 min at 68° C. and then immediately placing the plate on ice.
The eluted mRNA isolated was then used in a one-step quantitative real-time PCR reaction, using components of the Ultra Sense Kit together with Applied Biosystems primer-probe mixes. Real-time PCR data was analyzed, normalizing the Ct values for hIL-6 to an internal control, prior to determining the fold induction of each unknown sample, relative to the control.

In another data set the test system is hIL-17 mRNA. The data set can be described thus: Inhibition of hIL-17 mRNA transcription in OKT3-stimulated PBMC. It counts as cell-based. Further details: key: Active: Compounds with an IC50 value less than 30 μM were deemed to be active.; Not Active: Compounds with an IC50 value less than 30 μM were deemed to be active. The note with it: human peripheral blood mononuclear cells, OKT3 antibody, 6 h. As for the experimental part: In this example, hIL-17 mRNA in human peripheral blood mononuclear cells was quantitated to measure the transcriptional inhibition of hIL-17 when treated with a compound of the invention.
Human peripheral blood mononuclear cells were plated (2.0×10^5 cells per well) in a 96-well plate in 45 μL OpTimizer T Cell expansion media containing 20 ng/ml IL-2 and penicillin/streptomycin. The cells were treated with the test compound (45 μL at 2x concentration), and then the cells were incubated at 37° C. for 1 h before addition of 10x stock OKT3 antibody at 10 ug/ml in media. Cells were incubated at 37° C. for 6 h before the cells were harvested. At time of harvest, cells were centrifuged (800 rpm, 5 min). Spent media was removed and cell lysis solution (70 μL) was added the cells in each well and incubated for 5-10 min at room temperature, to allow for complete cell lysis and detachment. mRNA was then prepared using the “mRNA Catcher PLUS plate” (Invitrogen), according to the protocol supplied. […]
The eluted mRNA isolated was then used in a one-step quantitative RT-PCR reaction, using components of the Ultra Sense Kit together with Applied Biosystems primer-probe mixes. Real-time PCR data was analyzed, normalizing the Ct values for hIL-17 to an internal control, prior to determining the fold induction of each unknown sample, relative to the control.

The subject of the next data set is hApoA-1 mRNA. The data set can be described thus: Up-regulation of hApoA-1 mRNA transcription in Huh7 cells. More on the design: key: Active: Compounds with an EC170 value less than 30 μM were deemed to be active. The note with it: 48 h treatment. It counts as cell-based, human. As for the experimental part: In this example, ApoA-I mRNA in tissue culture cells was quantitated to measure the transcriptional up-regulation of ApoA-I when treated with a compound of the present disclosure.
Huh7 cells (2.5×10^5 per well) were plated in a 96-well plate using 100 μL DMEM per well, (Gibco DMEM supplemented with penicillin/streptomycin and 10% FBS), 24 h before the addition of the compound of interest. After 48 h treatment, the spent media was removed from the Huh-7 cells and placed on ice (for immediate use) or at −80° C. (for future use) with the “LDH cytotoxicity assay Kit II” from Abcam. The cells remaining in the plate were rinsed with 100 μL PBS.
Then 85 μL of cell lysis solution was added to each well and incubated for 5-10 min at room temperature, to allow for complete cell lysis and detachment. mRNA was then prepared using the “mRNA Catcher PLUS plate” from Life Technologies, according to the protocol supplied. After the last wash, as much wash buffer as possible was aspirated without allowing the wells to dry. Elution Buffer (E3, 80 μL) was then added to each well. mRNA was then eluted by incubating the mRNA Catcher PLUS plate with Elution Buffer for 5 min at 68° C., and then 1 min at 4° C. Catcher plates with mRNA eluted were kept on ice for use or stored at −80° C.
The eluted mRNA isolated was then used in a one-step real-time PCR reaction, using components of the Ultra Sense Kit together with Life Technologies primer-probe mixes. Real-time PCR data was analyzed, using the Ct values, to determine the fold induction of each unknown sample, relative to the control (that is, relative to the control for each independent DMSO concentration).
Compounds with an EC170 value less than 30 μM were deemed to be active.

For `COc1ccc(-c2nc3cc(OC)cc(OC)c3c(=O)[nH]2)c(NC2CCN(C(=O)C(C)C)CC2)c1` [Example 19, 2-(2-((1-Isobutyrylpiperidin-4-yl)amino)-4-methoxyphenyl)-5,7-dimethoxyquinazolin-4(3H)-one], the “FRET activity BRD4(1)” value in data set [1] is recorded as “Active”. For the same compound, in the data set on c-myc in MV4-11 cells, the “c-myc activity (IC50 < 30 μM)” value is given as “Active”. Moreover, the “Cell Proliferation activity (IC50 < 30 μM)” value (“Cell Proliferation activity” for short) with human AML MV-4-11 cells is on record as “Active”. Further, the “IL-6 activity (IC50 < 30 μM)” value with hIL-6 mRNA is “Active”. For the same compound, the “IL-17 activity (IC50 < 30 μM)” value in the data set with hIL-17 mRNA is “Active”.
The melting point is the temperature of the solid-liquid transition. `COc1cnc(-c2nc3cc(OC)cc(OC)c3c(=O)[nH]2)c(NC2CCN(C(=O)C(C)C)CC2)c1` [Example 32, 2-(3-((1-Isobutyrylpiperidin-4-yl)amino)-5-methoxypyridin-2-yl)-5,7-dimethoxyquinazolin-4(3H)-one] showed a melting point of 192 to 193 °C. For the same compound, the “FRET activity BRD4(1)” value in data set [1] was “Active”. Also, the “c-myc activity (IC50 < 30 μM)” value in the data set with c-myc in MV4-11 cells is “Active”. The “Cell Proliferation activity” value in the data set with human AML MV-4-11 cells is given as “Active”. Besides, the “IL-6 activity (IC50 < 30 μM)” value in the data set with hIL-6 mRNA is “Active”. The “ApoA-1 activity (EC170 < 30 μM)” value in the data set on hApoA-1 mRNA is reported as “Active”.
`COc1ccc(-c2nc3cc(OC)cc(OC)c3c(=O)[nH]2)c(NCCCNC(C)C)c1` [Example 20, 2-(2-((3-(Isopropylamino)propyl)amino)-4-methoxyphenyl)-5,7-dimethoxyquinazolin-4(3H)-one]: the melting point lay within 208 to 210 °C. Also, the “FRET activity BRD4(1)” value in data set [1] was “Active”. Also, the “c-myc activity (IC50 < 30 μM)” value in the data set with c-myc in MV4-11 cells was “Active”. The “Cell Proliferation activity” value in the data set with human AML MV-4-11 cells is reported as “Active”. For the same compound, the “IL-6 activity (IC50 < 30 μM)” value in the data set on hIL-6 mRNA is recorded as “Active”. For the same compound, the “ApoA-1 activity (EC170 < 30 μM)” value in the data set with hApoA-1 mRNA is “Active”.

These data come from patent US10500209B2, “Quinazolinones as bromodomain inhibitors” (Zenith Epigenetics Ltd., priority 2013, dated 2019).
